In brackets after ≈: the same amount, converted by molar mass. Several values for one entry are separate records, joined by “and”; a condition that tells them apart may be missing. Equal values may be shown once. Blank lines part the entries; values can stand above or below the molecule they belong to.
Key:
cupin domain of CapF = details: isothermal titration calorimetry; cited from earlier work
[1] = system: S. aureus Newman, G01, and F4; assay: MIC80 of S. aureus Newman, G01 and F4
S. aureus (ATCC 29213) = assay: MIC80 by broth microdilution; format: cell-based, Staphylococcus aureus
E. coli (ATCC 35218) [2] = assay: time-killing curve; format: cell-based, Escherichia coli; details: 16× MIC80, within 6 h
Cryptococcus neoformans = details: ref 15 and unpublished data; cited from earlier work
E. coli (ATCC 35218) [3] = assay: MIC80 by broth microdilution; format: cell-based, Escherichia coli; details: for MIC80 E. coli (ATCC35218): ≥80% growth inhibition, 16–24 h, CAMHB

MIC80 S. aureus (ATCC29213) (S. aureus (ATCC 29213); ≥80% growth inhibition, 16–24 h, CAMHB): < 20 µM
MIC80 E. coli (ATCC35218) (E. coli (ATCC 35218) [3]): < 30 µM
Structure (SMILES): O=C(Sc1cccccc1=O)c1ccccc1 [Compound 364]

MIC80 E. coli (ATCC35218) (E. coli (ATCC 35218) [3]): < 30 µM and < 20 µM
Structure (SMILES): O=C(Cc1ccccc1)Sc1cccccc1=O [Compound 680]

MIC80 E. coli (ATCC35218) (E. coli (ATCC 35218) [3]): < 20 µM
Structure (SMILES): O=c1cccccc1Sc1cccccc1=O [Compound 684]

MIC80 E. coli (ATCC35218) (E. coli (ATCC 35218) [3]): < 20 µM
Structure (SMILES): O=c1cccccc1SSc1cccccc1=O [Compound 685]

Second part, the molecule before the results:

Structure (SMILES): C=C(C)c1ccccc(=O)c1O [Compound 349, 3-isopropenyl-tropolone]
Kd (cupin domain of CapF): 27 ± 7 µM
growth inhibition, in words ([1]; F4 and G01 strains): did not inhibit
MIC80 ([1]; S. aureus F4 (Newman with ermB-inactivated cap5F gene)): 100 µM (≈ 16.2 µg/mL)
MIC80 ([1]; S. aureus G01 (Newman with ermB-inactivated cap5G gene)): 100 µM (≈ 16.2 µg/mL)
MIC80 ([1]; S. aureus Newman): 66.7 µM (≈ 10.8 µg/mL)
growth inhibition, in words ([1]; wild-type Newman): slightly inhibited

Structure (SMILES): O=c1cccccc1S [Compound 363, thiotropolone]
inhibition of S. aureus, in words (S. aureus (ATCC 29213); structure-activity discussion): only slightly decreased
reduction of colony count (E. coli (ATCC 35218) [2]): ~3 log10
MIC80 Cryptococcus neoformans (Cryptococcus neoformans): 0.25 µM (≈ 0.0345 µg/mL)

Structure (SMILES): O=C(Sc1cccccc1=O)c1ccccc1C(F)(F)F [Compound 677]
MIC80 E. coli (ATCC35218) (E. coli (ATCC 35218) [3]): < 20 µM

Structure (SMILES): O=C(Sc1cccccc1=O)c1cccc(C(F)(F)F)c1 [Compound 678]
MIC80 E. coli (ATCC35218) (E. coli (ATCC 35218) [3]): < 20 µM

Structure (SMILES): CC[C@H](C)[C@H](NC(=O)OCC1c2ccccc2-c2ccccc21)C(=O)Sc1cccccc1=O [Compound 686]
activity against E. coli, in words (E. coli (ATCC 35218) [3]): inactive

— article PMC6275967 (ACS Omega, 2018)
